Reference: patent US12194080B2, “Methods for identification, assessment, prevention, and treatment of metabolic disorders using PM20D1 and N-lipidated amino acids” (Dana-Farber Cancer Institute, Inc., priority 2015, dated 2025)

Key:
[1] = tested on: primary inguinal fat cells, primary BAT cells, C2C12 cells, and U2OS cells; assay: Uncoupled respiration cellular assays (variety of cell types); type: cell-based; details: N-acyl amino acids at 10-100 uM
Experimental: (§1) Cellular oxygen consumption rates were determined using an XF24 Extracellular Flux Analyzer (Seahorse Biosciences). Oligomycin was purchased from EMD Millipore, and FCCP and rotenone were purchased from Sigma. C2C12 or U2OS cells were seeded at 30,000 or 50,000 cells/well, respectively in an XF24 cell culture microplate (V7-PS, Seahorse Bioscience) and analyzed the following day. Primary iWAT or BAT adipocytes were seeded at 15,000 cells/well, differentiation was induced the following day as described, and the cells were analyzed on day 5. On the day of analysis, the cells were washed once with Seahorse respiration buffer (8.3 g/1 DMEM, 1.8 g/l NaCl, 1 mM pyruvate, 20 mM glucose, pen/strep), placed in 0.5 ml Seahorse respiration buffer, and incubated in a CO2-free incubator for 1 hr. Port injection solutions were prepared as follows (final concentrations in assay in parentheses): 10 μM oligomycin (1 μM final), […] amino acid (50 μM final), 2 μM FCCP (0.2 μM final), and 30 μM rotenone (3 μM final). The Seahorse program was run as follows: basal measurement, 3 cycles; inject port A (oligomycin), 3 cycles; inject port B (compounds), 8 cycles; inject port C (FCCP), 3 cycles; inject port D (rotenone), 3 cycles. Each cycle consisted of mix 4 min, wait 0 min, and measure 2 min. For data expressed as a percentage of oligomycin-treated basal, the respiration at cycle 6 was normalized to 100%, and the maximum respiration at any time point between cycles 7 and 15 inclusive was used.

[2] = tested on: C2C12 cells; assay: Cellular oxygen consumption rate (uncoupled respiration), C2C12 cells; type: cell-based, mouse; details: 50 μM, after oligomycin 1 μM
Experimental: C2C12, U2O5, and 293A cells were cultured in DMEM with 10% FBS and pen/strep. Primary inguinal (iWAT) and brown (BAT) adipocytes were obtained as follows. The stromal-vascular fraction of inguinal (iWAT) pad from 4-12 week old male mice was dissected, minced, and digested for 45 min. at 37° C. in PBS containing 10 mM CaCl2, 2.4 U/ml dispase II (Roche), and 1.5 U/ml collagenase D (Roche). The stromal-vascular fraction of brown fat (BAT) pads from newborn (P1-P14) pups was dissected, minced, and digested for 45 min at 37° C. in PBS containing 1.3 mM CaCl2, 120 mM NaCl, 5 mM KCl, 5 mM glucose, 100 mM HEPES, 4% BSA, and 1.5 mg/ml collagenase B (Roche). Digested tissue was diluted with adipocyte culture media (DMEM/F-12, GlutaMAX™ supplement, Life Technologies, with 10% FBS and pen/strep) and centrifuged (600×g for 10 min.). The pellet was resuspended in 10 ml adipocyte culture media, strained through a 40 μm filter, and plated. Differentiation was induced by application of an adipogenic cocktail containing 5 μg/ml insulin (Sigma), 5 μM dexamethasone (Sigma), 250 μM isobutylmethylxanthine (Sigma), and 1 μM rosiglitazone (Cayman) for 2 days. Two days after induction, cells were maintained in adipocyte culture media containing 5 μg/ml insulin and 1 μM rosiglitazone.
as §1

[3] = target: T1, mouse PM20D1 (Mus musculus, UniProt Q8C165); assay: In vitro PM20D1-catalyzed synthesis of N-acyl amino acids; type: biochemical; details: for substrate of the PM20D1 synthase reaction: head group 100 μM, oleate or arachidonate 1.5 mM, C18:1-CoA 0.7 mM
T1 construct: Full-length mouse Pm20d1 cDNA (GE Dharmacon) was subcloned with an in-frame C-terminal 6× His and FLAG® tag; made in house; host or cells: 293A (HEK293A) cells stably infected with retrovirus
T1 sequence (Q8C165 25-503): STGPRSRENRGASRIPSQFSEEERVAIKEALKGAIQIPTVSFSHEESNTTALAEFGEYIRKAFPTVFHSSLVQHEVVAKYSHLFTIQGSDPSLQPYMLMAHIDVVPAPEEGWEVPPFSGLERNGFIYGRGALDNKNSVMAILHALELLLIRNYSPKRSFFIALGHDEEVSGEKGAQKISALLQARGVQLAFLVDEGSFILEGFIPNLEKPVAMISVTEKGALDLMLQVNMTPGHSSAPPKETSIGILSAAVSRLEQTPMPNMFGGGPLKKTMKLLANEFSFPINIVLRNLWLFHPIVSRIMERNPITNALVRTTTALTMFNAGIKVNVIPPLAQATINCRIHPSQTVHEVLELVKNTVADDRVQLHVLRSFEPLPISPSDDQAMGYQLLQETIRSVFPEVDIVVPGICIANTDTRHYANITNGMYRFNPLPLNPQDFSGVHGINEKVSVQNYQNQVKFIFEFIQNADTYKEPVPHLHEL
Experimental: (§2) The concentrated media was centrifuged to remove debris (600×g, 10 min, 4° C.) and the supernatant containing PM20D1-flag was decanted into a new tube. PM20D1-Flag was immunoaffinity purified overnight at 4° C. from the concentrated media using magnetic Flag-M2 beads (Sigma Aldrich). The beads were collected, washed three times in PBS, eluted with 3× Flag peptide ([…] in PBS, Sigma Aldrich), aliquoted, and stored at −80° C. For the purification of human PM20D1-flag, hPM20D1-flag plasmid (Origene) was transiently transfected into 293A cells. After two days, the media was changed, harvested 24 h later, concentrated, and purified exactly as described above.
(§3) In vitro PM20D1-catalyzed synthesis of N-acyl amino acids was measured by incubating purified PM20D1 protein with oleate (1.5 mM) and phenylalanine (0.1 mM) in PBS (to 100 μl final volume) at 37° C. for 1.5 hrs. In vitro PM20D1-catalyzed N-acyl amino acid hydrolysis was measured by incubating purified PM20D1 protein with the indicated N-acyl amino acid (0.1 mM) in PBS (to 100 μl final volume) at 37° C. for 1.5 hrs. Reactions were terminated by placing the vials at −80° C. and the products generated in vitro were analyzed by mass spectroscopy (MS).
(§4) Briefly, frozen serum (30 μl) for polar metabolomic analyses were extracted in 160 μl of 1:1 acetonitrile/methanol with inclusion of internal standard D3, ^15N-serine (1 nmol). Activity assays (100 μl) were extracted in 400 μl 1:1 acetonitrile/methanol. Following 30 s of thorough vortexing and 1 min of bath sonication, the polar metabolite fraction (supernatant) was isolated by centrifugation at 13,000×g for 10 min. Ten μl of this supernatant was analyzed by SRM-based targeted LC-MS/MS, or untargeted LC-MS.
(§5) For separation of polar metabolites, normal-phase chromatography was performed with a […] column (50 mm×4.60 mm, Phenomenex). Mobile phases were as follows: Buffer A, acetonitrile; Buffer B, 95:5 water/acetonitrile with 0.1% formic acid or 0.2% ammonium hydroxide with 50 mM ammonium acetate for positive and negative ionization mode, respectively. The flow rate for each run started at 0.2 ml/min for 2 min, followed by a gradient starting at 0% B and increasing linearly to 100% B over the course of 15 min with a flow rate of 0.7 ml/min, followed by an isocratic gradient of 100% B for 10 min at 0.7 ml/min before equilibrating for 5 min at 0% B with a flow rate of 0.7 ml/min. MS analysis was performed with an electrospray ionization (ESI) source on an Agilent 6430 QQQ LC—MS/MS. The capillary voltage was set to 3.5 kV, and the fragmentor voltage was set to 100 V. The drying gas temperature was 325° C., the drying gas flow rate was 10 l/min, and the nebulizer pressure was 45 psi. For polar targeted and untargeted metabolomic analysis, representative metabolites were quantified by SRM of the transition from precursor to product ions (corresponding to amino acid fragment) at associated collision energies. Several representative fragmentation ions are as follows: C18:1-Ala, 352>88; C18:1-Gly, 338>74; C18:1-Phe, 428>164; C18:1-Leu/Ile, 394>130; C20:4-Phe, 450>164; C20:4-Leu/Ile, 416>130. Untargeted LC-MS was performed by scanning a mass range of m/z 50-1200, and data were exported as mzdata files and uploaded to XCMSOnline (xcmsserver.nutr.berkeley.edu) to identify metabolites that were differentially changed. For targeted metabolomics analysis, metabolites were quantified by integrating the area under the peak and were normalized to internal standard values corresponding to 1 nmol D3, ^15N-serine.

[4] = target: T1, mouse PM20D1; assay: In vitro PM20D1-catalyzed N-acyl amino acid hydrolysis; type: biochemical; details: N-acyl amide substrate 100 μM
Experimental: as §2, §3, §4, §5

SMILES	uncoupled respiration in cells [1]	uncoupling activity (uncoupled respiration) [2]	further results
CCCCCCCCCCCCCCCC(=O)N[C@@H](Cc1ccccc1)C(=O)OC [N-palmitoyl phenylalanine methyl ester]	inactive	–	–
CCCCCC[C@@H](O)C/C=C\CCCCCCCC(=O)N[C@@H](C)c1ccccc1 [(S)-alpha-methylbenzyl ricinoleamide, reference compound]	inactive	–	–
CCCCC/C=C\C/C=C\C/C=C\C/C=C\CCCC(=O)N[C@H](C)CO [methanandamide, R(+)-methanandamide, reference compound]	inactive	did not stimulate uncoupled respiration	–
N[C@@H](Cc1ccccc1)C(=O)O [Phe, phenylalanine]	–	–	substrate of the PM20D1 synthase reaction [3]: most efficiently converted to its corresponding N-acyl amino acid product
CCCCCCCC/C=C\CCCCCCCC(=O)N[C@@H](CCCCN)C(=O)O [C18:1-Lys, Oleoyl-L-lysine]	–	not	–
CCCCCCCC/C=C\CCCCCCCC(=O)NCCO [N-oleoyl ethanolamine, reference compound]	inactive	–	substrate of the PM20D1 hydrolysis reaction [4]: does not hydrolyze; substrate of the PM20D1 hydrolysis reaction ([4]; listed as C18:1-EA): not a PM20D1 substrate
CCCCCCCC/C=C\CCCCCCCC(=O)N[C@@H](CCC(N)=O)C(=O)O [C18:1-Gln, Oleoyl-L-glutamine]	–	possessed the uncoupling activity	–
CCCCCCCC/C=C\CCCCCCCC(=O)N[C@@H](CO)C(=O)O [C18:1-Ser]	–	–	substrate of the PM20D1 hydrolysis reaction [4]: substrates
CCCCCCCC/C=C\CCCCCCCC(=O)N[C@@H](Cc1ccccc1)C(N)=O [N-oleoyl phenylalanine amide, (S)-N-(1-amino-1-oxo-3-phenylpropan-2-yl)oleamide]	inactive	completely abrogated uncoupling activity	–
CCCCC/C=C\C/C=C\C/C=C\C/C=C\CCCCOC(CO)CO [noladin ether, reference compound]	inactive	–	–
CC(=O)[O-].CC(=O)[O-].[Zn+2] [Zn(OAc)2]	–	–	effect on PM20D1 reaction rate ([3]; 2 mM added to the reaction in PBS): does not augment reaction rate and may decrease the rate
CCCCC/C=C\C/C=C\C/C=C\C/C=C\CCCC(=O)NCCCC(=O)O [N-arachidonoyl gamma amino butyric acid]	increased uncoupled respiration	stimulate uncoupled respiration	–
CCCCC/C=C\C/C=C\C/C=C\C/C=C\CCCC(=O)NC [N-arachidonoyl N-methyl amide, N-methyl N-arachidonoyl amide, reference compound]	inactive	did not stimulate uncoupled respiration	–
NCCO [ethanolamine]	–	–	substrate of the PM20D1 synthase reaction [3]: not substrates for the synthase reaction
CCCCCCCC/C=C\CCCCCCCC(=O)N[C@@H](Cc1ccccc1)C(=O)OC [N-oleoyl phenylalanine methyl ester, Methyl oleoyl-L-phenylalaninate]	inactive	completely abrogated uncoupling activity	–
CCCCC/C=C\C/C=C\C/C=C\C/C=C\CCCC(=O)NCCS(=O)(=O)O [N-arachidonoyl taurine, reference compound]	inactive	did not stimulate uncoupled respiration	–
CCCCCCCC/C=C\CCCCCCCC(=O)NCC(=O)O [C18:1-Gly]	–	–	substrate of the PM20D1 hydrolysis reaction [4]: substrates
CCCCC/C=C\C/C=C\C/C=C\C/C=C\CCCC(=O)N[C@@H](CO)C(=O)O [N-arachidonoyl serine]	increased uncoupled respiration	–	–
CCCCC/C=C\C/C=C\CCCCCCCC(=O)N[C@@H](Cc1ccccc1)C(=O)O [N-linoleoyl phenylalanine]	increased uncoupled respiration	–	–
N[C@@H](CCC(=O)O)C(=O)O [glutamate]	–	–	substrate of the PM20D1 synthase reaction [3]: not substrates for the synthase reaction
CCCCC/C=C\C/C=C\C/C=C\C/C=C\CCCC(=O)NCCc1ccc(O)c(O)c1 [N-arachidonoyl dopamine, reference compound]	inactive	did not stimulate uncoupled respiration	–
